Test system: bacteria
Assay: Residual test on coated carriers, 10 minute contact time (organism not named)
Assay type: cell-based
Settings: average over all inocula of the sample
Source text: Solutions of examples 12-01 to 12-05 were used to coat polycarbonate or glass carriers. Once dried, bacteria were inoculated on top of the coating and a log reduction of bacteria was obtained after a certain contact time. CFU=Colony Forming Units, TNTC=Too numerous to count, BCP=benzalkonium chloride powder, ThP=thymol powder

Substance: alkyldimethylbenzylammonium chloride [0.3 wt % benzalkonium chloride control]
- Average Log 10 Reduction: 0.5
